# US7799947B2, “In vivo imaging compounds” (Hammersmith Imanet Limited, priority 2005, dated 2010)
# Biological target: T1, NR2B receptor (Rattus norvegicus, UniProt P35439+Q00960)
# T1 construct: NMDA, Polyamine source: Wistar Rat cerebral cortex; from tissue; host or cells: Wistar rat cerebral cortex
# Assay: In vitro affinity measurement, [^3H]Ifenprodil radioligand binding (NMDA, Polyamine)
# Conditions: Wistar Rat cerebral cortex; ligand [^3H]Ifenprodil; 2 hours at 4° C.; six concentrations tested in duplicate
# T1 sequence (Q00960 27-1482, other chains not shown): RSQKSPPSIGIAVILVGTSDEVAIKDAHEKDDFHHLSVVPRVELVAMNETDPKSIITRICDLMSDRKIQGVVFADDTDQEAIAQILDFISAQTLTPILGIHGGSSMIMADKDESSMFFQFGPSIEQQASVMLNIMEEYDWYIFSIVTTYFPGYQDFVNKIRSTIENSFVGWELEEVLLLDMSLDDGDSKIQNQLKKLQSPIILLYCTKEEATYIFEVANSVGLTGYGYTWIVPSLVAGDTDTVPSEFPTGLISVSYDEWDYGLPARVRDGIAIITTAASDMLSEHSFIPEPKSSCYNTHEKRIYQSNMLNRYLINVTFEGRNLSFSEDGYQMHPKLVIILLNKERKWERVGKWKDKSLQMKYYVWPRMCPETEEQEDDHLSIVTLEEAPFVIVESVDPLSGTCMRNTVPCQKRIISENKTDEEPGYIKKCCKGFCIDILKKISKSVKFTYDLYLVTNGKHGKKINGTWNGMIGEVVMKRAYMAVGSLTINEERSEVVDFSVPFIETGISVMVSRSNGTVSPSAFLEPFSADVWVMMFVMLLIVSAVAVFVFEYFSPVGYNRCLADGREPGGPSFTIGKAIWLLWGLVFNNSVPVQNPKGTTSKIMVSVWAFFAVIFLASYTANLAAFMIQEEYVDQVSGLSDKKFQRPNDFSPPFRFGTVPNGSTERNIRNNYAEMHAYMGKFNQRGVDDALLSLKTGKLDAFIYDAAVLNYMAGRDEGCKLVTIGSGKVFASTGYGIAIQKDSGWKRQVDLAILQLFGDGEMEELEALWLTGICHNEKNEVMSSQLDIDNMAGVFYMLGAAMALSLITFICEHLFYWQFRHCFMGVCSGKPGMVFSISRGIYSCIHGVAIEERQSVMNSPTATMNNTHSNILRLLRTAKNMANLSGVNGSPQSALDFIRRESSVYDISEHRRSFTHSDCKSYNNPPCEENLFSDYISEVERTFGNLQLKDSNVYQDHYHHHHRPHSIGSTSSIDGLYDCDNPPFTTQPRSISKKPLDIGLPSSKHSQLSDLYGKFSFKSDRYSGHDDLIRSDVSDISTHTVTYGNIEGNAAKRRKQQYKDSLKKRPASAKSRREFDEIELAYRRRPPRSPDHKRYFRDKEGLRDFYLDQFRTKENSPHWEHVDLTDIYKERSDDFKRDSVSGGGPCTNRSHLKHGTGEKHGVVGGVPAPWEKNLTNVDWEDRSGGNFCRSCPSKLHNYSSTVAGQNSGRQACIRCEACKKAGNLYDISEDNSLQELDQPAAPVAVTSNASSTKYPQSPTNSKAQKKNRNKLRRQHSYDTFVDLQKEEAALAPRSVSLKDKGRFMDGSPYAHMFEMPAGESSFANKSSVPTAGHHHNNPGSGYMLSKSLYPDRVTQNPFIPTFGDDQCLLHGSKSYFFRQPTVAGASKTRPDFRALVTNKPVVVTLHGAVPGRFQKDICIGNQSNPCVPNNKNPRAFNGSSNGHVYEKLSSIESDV
row,Compound,Ki [nM]
1,"COc1cc(CNC(=N)c2ccc(OC(F)(F)F)cc2)cc(OC)c1 [EA4, N-(3,5-dimethoxybenzyl)-4-trifluoromethoxyphenyl amidine]",< 11
2,"COc1ccc(OC)c(CNC(=N)c2ccc(OC(F)(F)F)cc2)c1 [EA5, N-(2,5-dimethoxybenzyl)-4-trifluoromethoxyphenyl amidine]",< 11
3,"COc1cccc(OC)c1CNC(=N)c1ccc(OC(F)(F)F)cc1 [EA6, N-(2,6-dimethoxybenzyl)-4-trifluoromethoxyphenyl amidine]",< 2
4,"COc1cccc(CNC(=N)c2ccc(OC(F)(F)F)cc2)c1OC [EA7, N-(2,3-dimethoxybenzyl)-4-trifluoromethoxyphenyl amidine]",> 100
5,"COc1cc(CNC(=N)c2ccc(OC(F)(F)F)cc2)c(OC)cc1Cl [EA8, N-(2,5-dimethoxy-4-chlorobenzyl)-4-trifluoromethoxyphenyl amidine]",< 11
6,"COc1ccc(Cl)cc1CNC(=N)c1ccc(OC(F)(F)F)cc1 [EA9, N-(2-methoxy-5-chlorobenzyl)-4-trifluoromethoxyphenyl amidine]",< 2
7,"COc1ccc(Br)cc1CNC(=N)c1ccc(OC(F)(F)F)cc1 [EA10, N-(2-methoxy-5-bromobenzyl)-4-trifluoromethoxyphenyl amidine]",< 2
8,"COc1cc(Cl)cc(CNC(=N)c2ccc(OC(F)(F)F)cc2)c1 [EA11, N-(3-methoxy-5-chlorobenzyl)-4-trifluoromethoxyphenyl amidine]",< 11

# More lines, now with the values ahead:
row,Ki [nM],Compound
1,< 11,"COc1ccccc1CNC(=N)c1ccc(I)cc1 [EA12, N-(2-methoxybenzyl)-4-iodophenyl amidine]"
2,< 11,"N=C(NCc1cccc(Cl)c1)c1ccc(I)cc1 [EA13, N-(3-chlorobenzyl)-4-iodophenyl amidine]"
3,< 2,"N=C(NCc1cc(Cl)cc(Cl)c1)c1ccc(I)cc1 [EA14, N-(3,5-dichlorobenzyl)-4-iodophenyl amidine]"
4,< 11,"N=C(NCc1cc(Cl)cc(OCCF)c1)c1ccc(OC(F)(F)F)cc1 [EA15, N-(3-(2-fluoroethoxy)-5-chlorobenzyl)-4-trifluoromethoxyphenyl amidine]"
5,< 11,N=C(NCc1cc(Br)ccc1OCCF)c1ccc(OC(F)(F)F)cc1 [EA16]
